According to PMC9106665 (Communications Biology, 2022):
Substitutions are numbered along the chain they refer to. ≈ marks a conversion by molar mass, not a printed value.

Tests used:
[1] = target: T1, EcDHFR D27E (Escherichia coli, UniProt P0ABQ4, D27E); assay: Steady-state kinetic measurements; format: biochemical; settings: varied substrate 1 to 200 µM, 25 °C
T1 construct: using E. coli DHFR template previously synthesized by GeneScript; made in house; host or cells: E. coli BL21(DE3)
T1 sequence (P0ABQ4 1-159 D27E): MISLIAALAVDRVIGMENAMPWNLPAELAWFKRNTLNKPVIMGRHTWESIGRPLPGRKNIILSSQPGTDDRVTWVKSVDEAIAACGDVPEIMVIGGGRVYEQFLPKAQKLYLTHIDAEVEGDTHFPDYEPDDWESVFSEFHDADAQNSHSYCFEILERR
Text: (§1) using a nonlinear regression method in GraphPad Prism 9.2.0 software. To determine the turnover number (kcat) using the same model, the enzyme concentration (based on the protein concentration determined by Bradford assay) was constrained to a constant value and analyzed by the following equation (Eq. 3):3 Y=Et×kcat×X/(Km+X)

[2] = target: T2, EcDHFR D27E/L28Q (Escherichia coli, UniProt P0ABQ4, D27E/L28Q); assay: Steady-state kinetic measurements; format: biochemical; settings: varied substrate 1 to 200 µM, 25 °C
T2 construct: using E. coli DHFR template previously synthesized by GeneScript; made in house; host or cells: E. coli BL21(DE3)
T2 sequence (P0ABQ4 1-159 D27E/L28Q): T1 sequence (P0ABQ4 1-159 D27E) with L28Q
Text: as §1

[3] = target: T3, EcDHFR L28Q (Escherichia coli, UniProt P0ABQ4, L28Q); assay: Steady-state kinetic measurements; format: biochemical; settings: varied substrate 1 to 200 µM, 25 °C
T3 construct: using E. coli DHFR template previously synthesized by GeneScript; made in house; host or cells: E. coli BL21(DE3)
T3 sequence (P0ABQ4 1-159 L28Q): T1 sequence (P0ABQ4 1-159 D27E) with E27D, L28Q
Text: as §1

[4] = target: DfrA5 (Escherichia coli, UniProt P11731); assay: biochemical; design: species or system E. coli
Sequence of DfrA5 (P11731 whole entry): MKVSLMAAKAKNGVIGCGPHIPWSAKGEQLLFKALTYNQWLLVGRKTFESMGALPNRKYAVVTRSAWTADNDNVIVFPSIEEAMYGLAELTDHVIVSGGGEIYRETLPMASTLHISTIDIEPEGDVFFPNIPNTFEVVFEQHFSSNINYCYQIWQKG
Method: The assay was performed at room temperature using the Shimadzu UV/visible spectrophotometer. A standard reaction buffer contained 20 mM TES, pH 7.0, 50 mM KCl, 10 mM β-mercapthoethanol, 0.5 mM EDTA, and 1 mg/ml BSA. […] All measurements were performed in triplicate, from at least two independent experiments.

[5] = tested on: E. coli JW0451 acrB mutant strain; assay: microbe, parasite or virus in culture; format: cell-based; settings: Escherichia coli, w/o SMX; 80% inhibition of growth, 18 to 20 hours, 37°C
Method: Preparation, handling of cultures and the antibiotic susceptibility testing was performed according to CLSI guidelines. […] The compounds at the highest concentrations alone and paired with Sulfamethoxazole (1:19 w/w ratio) were then added to the first well before being serially diluted (2-fold) throughout the plate, leaving the last well with broth only (negative growth control). Next, 50 μl of the inoculum was added to each well.

[6] = tested on: E. coli BL21(DE3) strain overexpressing DfrA5; assay: Antibacterial activity (MIC); format: cell-based; settings: Escherichia coli
[7] = tested on: E. coli BL21(DE3) strain overexpressing DfrA1; assay: Antibacterial activity (MIC); format: cell-based; settings: Escherichia coli
[8] = tested on: E. coli BL21(DE3) strain overexpressing EcDHFR wt; assay: Antibacterial activity (MIC); format: cell-based; settings: Escherichia coli
[9] = tested on: Nc1nc2c(c(=O)[nH]1)N=C(CNc1ccc(C(=O)N[C@@H](CCC(=O)O)C(=O)O)cc1)CN2; assay: purified protein, by the assay type; format: biochemical, E. coli; settings: other: varied substrate 1 to 200 µM, 25 °C
Text: as §1

[10] = tested on: NC(=O)C1=CN([C@H]2O[C@H](COP(=O)(O)OP(=O)(O)OC[C@H]3O[C@@H](n4cnc5c(N)ncnc54)[C@H](OP(=O)(O)O)[C@@H]3O)[C@@H](O)[C@H]2O)C=CC1; assay: purified protein, by the assay type; format: biochemical, E. coli; settings: other: varied substrate 1 to 200 µM, 25 °C
Text: as §1

[11] = tested on: NC(=O)C1=CN([C@H]2O[C@H](COP(=O)(O)OP(=O)(O)OC[C@H]3O[C@@H](n4cnc5c(N)ncnc54)[C@H](OP(=O)(O)O)[C@@H]3O)[C@@H](O)[C@H]2O)C=CC1; assay: Steady-state kinetic measurements; format: biochemical, Escherichia coli; settings: other: varied substrate 1 to 200 µM, 25 °C

`Nc1nc2c(c(=O)[nH]1)N=C(CNc1ccc(C(=O)N[C@@H](CCC(=O)O)C(=O)O)cc1)CN2` [DHF, dihydrofolate] was tested. Which Km [1] did it give?
The Km was 15.4 ± 2.1 µM.

And the Km [2]?
The Km was 56.6 ± 8 µM.

And the Km [3]?
The Km was 5.2 ± 1 µM.

How did the Ki [4] turn out when `COc1cc(Cc2cnc(N)nc2N)c2c(c1OC)OC(C1CC1)C=C2` (centres unmarked) [Iclaprim, reference compound] was run?
The Ki was 99 ± 13.9 nM.

`CN(Cc1cnc2nc(N)nc(N)c2n1)c1ccc(C(=O)N[C@@H](CCC(=O)O)C(=O)O)cc1` [Methotrexate, reference compound] was tested. Which Ki [4] did it give?
Its Ki is 579 ± 73.8 nM.

How did the MIC [5] turn out when `COc1cc(Cc2cnc(N)nc2N)cc(OC)c1OC` [Trimethoprim, reference compound] was run?
The MIC was 0.04 µg/mL (≈ 0.138 µM).

What about the MIC ([6]; w/ SMX (1:19)) of the same molecule?
The MIC was greater than 20 µg/mL.

And the MIC ([6]; w/o SMX)?
Its MIC is greater than 20 µg/mL.

And the MIC ([7]; w/ SMX (1:19))?
The MIC was greater than 20 µg/mL.

What about the MIC ([7]; w/o SMX) of the same molecule?
The MIC was greater than 20 µg/mL.

And the MIC ([8]; w/ SMX (1:19))?
The MIC was 0.078 µg/mL (≈ 0.269 µM).

What about the MIC ([8]; w/o SMX) of the same molecule?
The MIC was 0.625 µg/mL (≈ 2.15 µM).

Which Km [9] does the source give for DfrA5 (Escherichia coli) here?
The Km was 24.2 ± 6.6 µM.

What about the kcat [9] of the same molecule?
The kcat was 31.4 ± 3.2 s⁻¹.

What about the kcat/Km [9] of the same molecule?
The kcat/Km was 1.3e+06 ± 400000 M⁻¹ s⁻¹.

What about the Km [10] of the same molecule?
Its Km is 19.9 ± 6.1 µM.

What about the kcat [10] of the same molecule?
The kcat was 34.3 ± 3.3 s⁻¹.

And the kcat/Km [10]?
The kcat/Km was 1.7e+06 ± 500000 M⁻¹ s⁻¹.

What does the source list for EcDHFR (Escherichia coli K-12)?
Km [11]: 5.8 ± 0.8 µM; kcat/Km [11]: 600000 ± 70000 M⁻¹ s⁻¹
